Laboratory results taken from patent publication US20250032573A1, “IMMUNITY-ENHANCING PEPTIDE ANALOGS AND USES THEREOF” (RESEARCH & BUSINESS FOUNDATION SUNGKYUNKWAN UNIVERSITY, priority 2023, published 2025).

What was measured:
neutrophils [1] = test system: neutrophils
FPR2 = FPR2 (Homo sapiens, UniProt P25090); test: cell-based; settings: FPR2-expressing RBL-2H3 cell line
Experimental: To investigate whether activation of FPR2 is induced by the WKYMVm peptide analogs, changes in calcium ions were measured in RBL-2H3 cell line that artificially expressed FPR2.

neutrophils [2] = test: Superoxide anion (ROS) production in neutrophils; type: cell-based
Experimental: The effect of superoxide anion production in neutrophils by the peptoid-comprising analogs in which a peptoid residue was substituted for K, Y, and M in the structure of WKYMVm was measured.

neutrophils [3] = test: Degranulation activity of neutrophils (beta-hexosaminidase activity); type: cell-based
Experimental: The degranulation activity of neutrophils by the analogs in which each amino acid in the structure of WKYMVm was substituted with a β-amino acid was compared and analyzed by measuring beta-hexosaminidase activity.
The degranulation activity of neutrophils by the peptoid-containing analogs in which a peptoid residue was substituted for K, Y, and M in the structure of WKYMVm was measured.

FPR1 = FPR1 (Homo sapiens, UniProt P21462); test: cell-based; settings: FPR1-expressing RBL-2H3 cell line
Experimental: To investigate whether activation of FPR1, which is important in regulating the activity of innate immune cells, is induced by the WKYMVm peptide analogs, changes in calcium ions were measured in RBL-2H3 cell line, a type of mast cell that artificially expressed FPR1. […] On the other hand, an increase in intracellular calcium ions by WKYMVβm (V is a β-amino acid) through activation of FPR1 was not observed.

[4] = test system: neutrophils isolated from mouse bone marrow; test: Cytokine secretion of neutrophils by ELISA, with or without LPS; type: cell-based; settings: 1 μM
Experimental: Neutrophils regulate the activity of other immune cells through the production of various types of cytokines. To investigate the effect of the WKYMVm peptide analogs on regulating cytokine production in neutrophils, […], and 24 hours later, the supernatants were collected and subjected to an enzyme-linked immunosorbent assay (ELISA) to measure the amount of cytokine secretion.

neutrophils [5] = test: Neutrophil chemotaxis assay using a Boyden chamber; type: cell-based
Experimental: To investigate the effect of the WKYMVm peptide analogs on the regulation of immune cell mobility, which a representative function of FPR, a chemotaxis assay was performed using a Boyden chamber.
To measure the in vitro innate immune activity of four peptides comprising one non-natural β^3-amino acid residue, the effect of enhancing neutrophil mobility was measured.

Chain of FPR2 (P25090 whole entry): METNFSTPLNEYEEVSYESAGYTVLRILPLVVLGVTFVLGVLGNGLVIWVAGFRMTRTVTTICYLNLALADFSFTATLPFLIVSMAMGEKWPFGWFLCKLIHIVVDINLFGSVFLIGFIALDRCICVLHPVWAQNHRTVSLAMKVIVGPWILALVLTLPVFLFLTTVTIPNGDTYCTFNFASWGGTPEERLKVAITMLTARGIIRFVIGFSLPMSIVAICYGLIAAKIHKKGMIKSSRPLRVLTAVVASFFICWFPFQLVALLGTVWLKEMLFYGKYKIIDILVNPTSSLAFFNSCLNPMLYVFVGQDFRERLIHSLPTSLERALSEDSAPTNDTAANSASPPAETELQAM
Chain of FPR1 (P21462 whole entry): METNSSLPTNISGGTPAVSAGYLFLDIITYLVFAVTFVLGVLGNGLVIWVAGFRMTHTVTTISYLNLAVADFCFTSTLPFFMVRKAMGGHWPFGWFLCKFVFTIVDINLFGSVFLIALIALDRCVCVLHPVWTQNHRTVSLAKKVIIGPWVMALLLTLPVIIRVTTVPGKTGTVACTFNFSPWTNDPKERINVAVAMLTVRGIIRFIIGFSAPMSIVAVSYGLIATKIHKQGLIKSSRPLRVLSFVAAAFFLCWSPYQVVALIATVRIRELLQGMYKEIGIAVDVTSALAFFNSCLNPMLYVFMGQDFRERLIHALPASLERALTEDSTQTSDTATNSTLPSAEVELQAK

CSCC[C@H](NC(=O)[C@H](Cc1ccc(O)cc1)NC(=O)[C@H](CCCCN)NC(=O)[C@@H](N)Cc1c[nH]c2ccccc12)C(=O)N[C@H](CC(=O)N[C@H](CCSC)C(N)=O)C(C)C [WKYMVβm]
calcium ion-increasing effect in neutrophils (neutrophils [1]): not exhibited | increase in intracellular calcium ions through activation of FPR2 (in words) (FPR2): not observed | superoxide anion production in neutrophils (neutrophils [2]): did not induce superoxide anion production | degranulation activity of neutrophils (neutrophils [3]): did not induce the degranulation activity of neutrophils | increase in intracellular calcium ions through activation of FPR1 (in words) (FPR1): not observed | effect in regulating the neutrophil activity (LPS-induced cytokines) [4]: minimal effect | effect of enhancing neutrophil mobility, compared with the WKYMVm peptide (neutrophils [5]): weak activity only at high concentrations | neutrophil mobility at 1 μM (neutrophils [5]; 1 μM): highly active neutrophil mobility promotion effect was induced | neutrophil mobility at a low concentration (neutrophils [5]; low concentration): not promoted
